Test results taken from ChEMBL document CHEMBL1152085, “Novel 3-deoxy-3-descladinosyl-6-O-methyl erythromycin a analogues. Synthesis and in vitro activity” (1997).
In brackets after ≈: the same amount, converted by molar mass.

Key:
Assay type in all cases: functional
Staphylococcus aureus [1] = experiment: Tested in vitro for minimum inhibitory concentration to produce antibacterial activity against Staphylococcus aureus 1775 in presence of erythromycin A
Streptococcus equinus [2] = experiment: Tested in vitro for minimum inhibitory concentration to produce antibacterial activity against Streptococcus bovis A-5169 in presence of erythromycin A
Staphylococcus aureus [3] = experiment: Tested in vitro for minimum inhibitory concentration to produce antibacterial activity against Staphylococcus aureus A5177
Staphylococcus aureus [4] = experiment: Tested in vitro for minimum inhibitory concentration to produce antibacterial activity against Staphylococcus aureus A5177 in presence of erythromycin A
Enterococcus faecium [5] = experiment: Tested in vitro for minimum inhibitory concentration to produce antibacterial activity against Enterococcus faecium ATCC 8043
[6] = tested on: Staphylococcus epidermidis; experiment: Tested in vitro for minimum inhibitory concentration to produce antibacterial activity against Staphylococcus epidermidis 3519
Staphylococcus aureus [7] = experiment: Tested in vitro for minimum inhibitory concentration to produce antibacterial activity against Staphylococcus aureus CMX 642A
Escherichia coli [8] = experiment: Tested in vitro for minimum inhibitory concentration to produce antibacterial activity against Escherichia coli SS
Staphylococcus aureus [9] = experiment: Tested in vitro for minimum inhibitory concentration to produce antibacterial activity against Staphylococcus aureus ATCC 6538P
Staphylococcus aureus [10] = experiment: Tested in vitro for minimum inhibitory concentration to produce antibacterial activity against Staphylococcus aureus 1775
[11] = tested on: Staphylococcus epidermidis; experiment: Tested in vitro for minimum inhibitory concentration to produce antibacterial activity against Staphylococcus epidermidis 3519 in presence of erythromycin A
Streptococcus pyogenes [12] = experiment: Tested in vitro for minimum inhibitory concentration to produce antibacterial activity against Streptococcus pyogenes EES61 in presence of erythromycin A
Streptococcus pyogenes [13] = experiment: Tested in vitro for minimum inhibitory concentration to produce antibacterial activity against Streptococcus pyogenes PIU 2548 in presence of erythromycin A
Escherichia coli [14] = experiment: Tested in vitro for minimum inhibitory concentration to produce antibacterial activity against Escherichia coli JUHL in presence of erythromycin A
Staphylococcus aureus [15] = experiment: Tested in vitro for minimum inhibitory concentration to produce antibacterial activity against Staphylococcus aureus A-5278 in presence of erythromycin A
Streptococcus equinus [16] = experiment: Tested in vitro for minimum inhibitory concentration to produce antibacterial activity against Streptococcus bovis A-5169
Staphylococcus aureus [17] = experiment: Tested in vitro for minimum inhibitory concentration to produce antibacterial activity against Staphylococcus aureus CMX 642A in presence of erythromycin A
Streptococcus agalactiae [18] = experiment: Tested in vitro for minimum inhibitory concentration to produce antibacterial activity against Streptococcus agalactiae CMX 508 in presence of erythromycin A
Enterococcus faecium [19] = experiment: Tested in vitro for minimum inhibitory concentration to produce antibacterial activity against Enterococcus faecium ATCC 8043 in presence of erythromycin A
Escherichia coli [20] = experiment: Tested in vitro for minimum inhibitory concentration to produce antibacterial activity against Escherichia coli SS in presence of erythromycin A
Staphylococcus aureus [21] = experiment: Tested in vitro for minimum inhibitory concentration to produce antibacterial activity against Staphylococcus aureus NCTC-10649M in presence of erythromycin A
Streptococcus agalactiae [22] = experiment: Tested in vitro for minimum inhibitory concentration to produce antibacterial activity against Streptococcus agalactiae CMX 508
Staphylococcus aureus [23] = experiment: Tested in vitro for minimum inhibitory concentration to produce antibacterial activity against Staphylococcus aureus NCTC-10649M
Staphylococcus aureus [24] = experiment: Tested in vitro for minimum inhibitory concentration to produce antibacterial activity against Staphylococcus aureus CMX 553
Staphylococcus aureus [25] = experiment: Tested in vitro for minimum inhibitory concentration to produce antibacterial activity against Staphylococcus aureus A-5278
Escherichia coli [26] = experiment: Tested in vitro for minimum inhibitory concentration to produce antibacterial activity against Escherichia coli JUHL
Staphylococcus aureus [27] = experiment: Tested in vitro for minimum inhibitory concentration to produce antibacterial activity against Staphylococcus aureus CMX 553 in presence of erythromycin A
Staphylococcus aureus [28] = experiment: Tested in vitro for minimum inhibitory concentration to produce antibacterial activity against Staphylococcus aureus ATCC 6538P in presence of erythromycin A
Streptococcus pyogenes [29] = experiment: Tested in vitro for minimum inhibitory concentration to produce antibacterial activity against Streptococcus pyogenes PIU 2548
Streptococcus pyogenes [30] = experiment: Tested in vitro for minimum inhibitory concentration to produce antibacterial activity against Streptococcus pyogenes EES61
Streptococcus pyogenes [31] = experiment: Tested in vitro for minimum inhibitory concentration to produce antibacterial activity against Streptococcus pyogenes 930
Streptococcus pyogenes [32] = experiment: Tested in vitro for minimum inhibitory concentration to produce antibacterial activity against Streptococcus pyogenes 930 in presence of erythromycin A

MIC (Staphylococcus aureus [1])	MIC (Streptococcus equinus [2])	MIC (Staphylococcus aureus [3])	MIC (Staphylococcus aureus [4])	MIC (Enterococcus faecium [5])	MIC [6]	MIC (Staphylococcus aureus [7])	MIC (Staphylococcus aureus [9])	MIC (Staphylococcus aureus [10])	MIC [11]	MIC (Streptococcus pyogenes [12])	MIC (Staphylococcus aureus [15])	MIC (Streptococcus equinus [16])	MIC (Staphylococcus aureus [17])	MIC (Streptococcus agalactiae [18])	MIC (Enterococcus faecium [19])	MIC (Staphylococcus aureus [21])	MIC (Streptococcus agalactiae [22])	MIC (Staphylococcus aureus [23])	MIC (Staphylococcus aureus [24])	SMILES	also measured
> 100 µg/mL	0.02 µg/mL	1.56 µg/mL (≈ 2.13 µM)	25 µg/mL	0.39 µg/mL (≈ 0.534 µM)	1.56 µg/mL (≈ 2.13 µM)	1.56 µg/mL (≈ 2.13 µM)	1.56 µg/mL (≈ 2.13 µM)	50 µg/mL (≈ 68.4 µM)	0.39 µg/mL	0.02 µg/mL	> 100 µg/mL	0.02 µg/mL (≈ 0.0274 µM)	0.39 µg/mL	0.02 µg/mL	0.1 µg/mL	0.39 µg/mL	0.1 µg/mL (≈ 0.137 µM)	1.56 µg/mL (≈ 2.13 µM)	1.56 µg/mL (≈ 2.13 µM)	CC[C@H]1OC(=O)[C@H](C)C[C@H](C)[C@@H](O[C@@H]2O[C@H](C)C[C@H](N(C)C)[C@H]2O)[C@](C)(OC)C[C@@H](C)C(=O)[C@H](C)[C@H]2N(CCCCc3ccccc3)C(=O)O[C@]12C	MIC (Escherichia coli [8]): 1.56 µg/mL (≈ 2.13 µM); MIC (Streptococcus pyogenes [13]): 6.2 µg/mL; MIC (Escherichia coli [14]): 100 µg/mL; MIC (Escherichia coli [20]): 0.39 µg/mL; MIC (Staphylococcus aureus [25]): 50 µg/mL (≈ 68.4 µM); MIC (Escherichia coli [26]): > 100 µg/mL; MIC (Staphylococcus aureus [27]): 0.39 µg/mL; MIC (Staphylococcus aureus [28]): 0.39 µg/mL; MIC (Streptococcus pyogenes [29]): 0.2 µg/mL (≈ 0.274 µM); MIC (Streptococcus pyogenes [30]): 0.05 µg/mL (≈ 0.0684 µM)
> 100 µg/mL	0.05 µg/mL	6.2 µg/mL (≈ 7.8 µM)	12.5 µg/mL	1.56 µg/mL (≈ 1.96 µM)	12.5 µg/mL (≈ 15.7 µM)	12.5 µg/mL (≈ 15.7 µM)	12.5 µg/mL (≈ 15.7 µM)	25 µg/mL (≈ 31.4 µM)	0.39 µg/mL	0.02 µg/mL	> 100 µg/mL	1.56 µg/mL (≈ 1.96 µM)	0.39 µg/mL	0.05 µg/mL	0.05 µg/mL	0.39 µg/mL	1.56 µg/mL (≈ 1.96 µM)	6.2 µg/mL (≈ 7.8 µM)	6.2 µg/mL (≈ 7.8 µM)	CC[C@H]1OC(=O)[C@H](C)C[C@H](C)[C@@H](O[C@@H]2O[C@H](C)C[C@H](N(C)C)[C@H]2O)[C@](C)(OC)C[C@@H](C)C(=O)[C@H](C)[C@H]2N(CCc3ccc(Oc4ccccc4)cc3)C(=O)O[C@]12C	MIC (Streptococcus pyogenes [13]): 6.2 µg/mL; MIC (Streptococcus pyogenes [31]): 6.2 µg/mL (≈ 7.8 µM); MIC (Staphylococcus aureus [25]): 25 µg/mL (≈ 31.4 µM); MIC (Staphylococcus aureus [27]): 0.39 µg/mL; MIC (Staphylococcus aureus [28]): 0.39 µg/mL; MIC (Streptococcus pyogenes [29]): 3.1 µg/mL (≈ 3.9 µM); MIC (Streptococcus pyogenes [30]): 1.56 µg/mL (≈ 1.96 µM); MIC (Streptococcus pyogenes [32]): > 100 µg/mL
> 100 µg/mL	0.05 µg/mL	6.2 µg/mL (≈ 9.94 µM)	12.5 µg/mL	0.78 µg/mL (≈ 1.25 µM)	12.5 µg/mL (≈ 20 µM)	6.2 µg/mL (≈ 9.94 µM)	6.2 µg/mL (≈ 9.94 µM)	> 100 µg/mL	0.39 µg/mL	0.02 µg/mL	> 100 µg/mL	0.39 µg/mL (≈ 0.625 µM)	0.39 µg/mL	0.05 µg/mL	0.05 µg/mL	0.39 µg/mL	0.39 µg/mL (≈ 0.625 µM)	6.2 µg/mL (≈ 9.94 µM)	6.2 µg/mL (≈ 9.94 µM)	CC[C@H]1OC(=O)[C@H](C)C[C@H](C)[C@@H](O[C@@H]2O[C@H](C)C[C@H](N(C)C)[C@H]2O)[C@](C)(OC)C[C@@H](C)C2=NCCN3C(=O)O[C@@]1(C)[C@H]3[C@H]2C	MIC (Streptococcus pyogenes [13]): 6.2 µg/mL; MIC (Streptococcus pyogenes [31]): > 100 µg/mL; MIC (Staphylococcus aureus [25]): > 100 µg/mL; MIC (Staphylococcus aureus [27]): 0.39 µg/mL; MIC (Staphylococcus aureus [28]): 0.39 µg/mL; MIC (Streptococcus pyogenes [29]): 0.78 µg/mL (≈ 1.25 µM); MIC (Streptococcus pyogenes [30]): 0.39 µg/mL (≈ 0.625 µM); MIC (Streptococcus pyogenes [32]): > 100 µg/mL
> 100 µg/mL	0.01 µg/mL	100 µg/mL (≈ 166 µM)	6.2 µg/mL	100 µg/mL (≈ 166 µM)	100 µg/mL (≈ 166 µM)	100 µg/mL (≈ 166 µM)	100 µg/mL (≈ 166 µM)	> 100 µg/mL	0.2 µg/mL	0.01 µg/mL	> 100 µg/mL	3.1 µg/mL (≈ 5.14 µM)	0.39 µg/mL	0.02 µg/mL	0.1 µg/mL	0.39 µg/mL	25 µg/mL (≈ 41.5 µM)	100 µg/mL (≈ 166 µM)	100 µg/mL (≈ 166 µM)	CC[C@H]1OC(=O)[C@H](C)C[C@H](C)[C@@H](O[C@@H]2O[C@H](C)C[C@H](N(C)C)[C@H]2O)[C@](C)(OC)C[C@@H](C)/C(=N\OC)[C@H](C)[C@@H](O)[C@]1(C)O	MIC (Escherichia coli [8]): 6.2 µg/mL (≈ 10.3 µM); MIC (Escherichia coli [14]): 50 µg/mL; MIC (Escherichia coli [20]): 0.39 µg/mL; MIC (Streptococcus pyogenes [31]): 100 µg/mL (≈ 166 µM); MIC (Staphylococcus aureus [25]): > 100 µg/mL; MIC (Escherichia coli [26]): > 100 µg/mL; MIC (Staphylococcus aureus [27]): 0.39 µg/mL; MIC (Staphylococcus aureus [28]): 0.2 µg/mL; MIC (Streptococcus pyogenes [30]): 6.2 µg/mL (≈ 10.3 µM); MIC (Streptococcus pyogenes [32]): > 100 µg/mL
